The record followed here is patent publication US20240398973A1, “ENGINEERED ANTIBODY COMPOUNDS AND CONJUGATES THEREOF” (Eli Lilly and Company, priority 2017, published 2024).

Where two headings read alike, the source gives them in different places. Where no end group is shown, it is not given here.

In assay [1] the test system is primary human polymorphonuclear neutrophil (PMN). In words: PMN chemotaxis (transwell, modified Boyden chamber). The assay is classed as cell-based. As to conditions: for Relative Migration (PMN migration): relative to 10 nM fMLF (Table 4a). Here is the method: Chemotaxis is measured by observing primary human polymorphonuclear neutrophil (PMN) migration across transwell membranes (Corning #3415) towards antibody conjugates in a modified Boyden chamber assay. Approximately 2-4×10^5 cells from neutrophil-enriched preparations are seeded in upper transwell chambers on membranes with 3.0 um pores. The lower transwell chambers contain solutions of buffer alone and fMLF (N-formyl-Met-Leu-Phe peptide as positive control) and experimental antibody bioconjugates. […] Cell numbers are determined using standard curves. All data are transformed to percent relative to the maximal fMLF response for each individual experiment.

For the next assay, the system named is human primary PMNs. The assay is described as follows: PMN reactive oxygen species (ROS) production, luminol-amplified chemiluminescence. Type of assay: cell-based. To be noted: for PMN ROS production: relative to 1000 nM fMLF; for ROS Production by PMNs: relative to 10 uM fMLF, AUC 5 minutes (Table 8a).
In assay [2] the target is formyl peptide receptor 1 (FPR1) on primary human polymorphonuclear neutrophils (human) (UniProt P21462). In words: cell-based or functional assay.
For assay [3] the target is unchanged. In words: cell-based or functional assay. The source holds these as a separate data set.

Description for human primary PMNs: Production of ROS by human primary PMNs is measured using luminol-amplified chemiluminescence. Following isolation, PMNs are suspended at 1×10^6 cells/ml in HBSS containing calcium and magnesium (Gibco #14025-092) supplemented with 0.25% human serum albumin (Gemini Bio producst #800-124) and 50 uM Luminol (SigmaAldrich #123072-2.5G). 100 μl of cell suspension (1×10^5 total cells) is then distributed into each well of a 96-well plate suitable for fluorescence measurement (Greiner #655098) and temperature equilibrated to 37° C. for 5 minutes. Following equilibration, 10× solution of antibody conjugate is applied to the wells, achieving a 1× final concentration.
Immediately after the addition of antibody conjugate, chemiluminescence signal is recorded in a luminometer maintained at 37° C. with 0.01 seconds dwell time per well, 20 seconds total time between sequential plate readings and 45 minutes total run time (PerkinElmer EnVision Multilabel Plate Reader).

Take “Emibetuzumab-G4(PAA)-UC-HC-124C-378C: unconjugated emibetuzumab IgG4(PAA) with HC 124C and 378C; HC SEQ ID NO:3, LC SEQ ID NO:5”: the “Relative Migration (PMN migration towards antibody conjugates)” value in assay [1] (0.78 nM, relative to 3.12 nM fMLF (Table 6)) was found to be 5.48%; in assay [1] (1 nM, relative to 30 nM fMLF (Table 7)), 11.30%; in assay [1] (1.56 nM, relative to 3.12 nM fMLF (Table 6)), 8.05%; in assay [1] (3 nM, relative to 30 nM fMLF (Table 7)), 12.40%; in assay [1] (3.12 nM, relative to 3.12 nM fMLF (Table 6)), 7.24%; in assay [1] (6.25 nM, relative to 3.12 nM fMLF (Table 6)), 6.36%. In addition, the “Relative Migration (PMN migration towards antibody conjugates)” value in assay [1] (10 nM, relative to 30 nM fMLF (Table 7)) is 12.27%; in assay [1] (12.5 nM, relative to 3.12 nM fMLF (Table 6)) it was 4.11%; in assay [1] (25 nM, relative to 3.12 nM fMLF (Table 6)), 5.70%; in assay [1] (30 nM, relative to 30 nM fMLF (Table 7)), 14.66%; in assay [1] (50 nM, relative to 3.12 nM fMLF (Table 6)), 12.02%; in assay [1] (100 nM, relative to 3.12 nM fMLF (Table 6)) it was 6.67%. Also, the “Relative Migration (PMN migration towards antibody conjugates)” value is recorded as 14.89% in assay [1] (100 nM, relative to 30 nM fMLF (Table 7)) and 17.95% in assay [1] (300 nM, relative to 30 nM fMLF (Table 7)). Moreover, the “PMN migration (in words)” value in assay [1] (relative to conjugated antibodies) is “did not induce PMN migration”. For the same substance, the “PMN ROS production” value in the assay with human primary PMNs (1 nM, AUC 5 minutes (Table 10)) came to 25.1 percentage; with human primary PMNs (1 nM, AUC 5 minutes (Table 17)) it was 0.5 percentage; in the assay with human primary PMNs (2 nM, AUC 5 minutes (Table 10)), 25.5 percentage; in the assay on human primary PMNs (3 nM, AUC 5 minutes (Table 17)), 0.6 percentage; in the assay on human primary PMNs (3.9 nM, AUC 5 minutes (Table 10)) it was 25 percentage; in the assay with human primary PMNs (7.8 nM, AUC 5 minutes (Table 10)), 25.6 percentage. Besides, the “PMN ROS production” value turned out to be 0.5 percentage in the assay with human primary PMNs (12 nM, AUC 5 minutes (Table 17)); 24.9 percentage in the assay with human primary PMNs (15.6 nM, AUC 5 minutes (Table 10)); 0.6 percentage with human primary PMNs (30 nM, AUC 5 minutes (Table 17)); 25.3 percentage in the assay on human primary PMNs (31.3 nM, AUC 5 minutes (Table 10)); 24.5 percentage in the assay with human primary PMNs (62.5 nM, AUC 5 minutes (Table 10)); 0.5 percentage in the assay with human primary PMNs (100 nM, AUC 5 minutes (Table 17)). Also, the “PMN ROS production” value in the assay with human primary PMNs (125 nM, AUC 5 minutes (Table 10)) was found to be 24.6 percentage; with human primary PMNs (250 nM, AUC 5 minutes (Table 10)) it was 24.9 percentage; in the assay on human primary PMNs (300 nM, AUC 5 minutes (Table 17)), 0.7 percentage; with human primary PMNs (500 nM, AUC 5 minutes (Table 10)), 23 percentage; in the assay with human primary PMNs (1000 nM, AUC 5 minutes (Table 10)), 32.2 percentage; in the assay on human primary PMNs (1000 nM, AUC 5 minutes (Table 17)), 0.5 percentage.
In assay [2], “Emibetuzumab-G4(PAA)-fMLFK-HC-124C-162C-378C (antibody)” registered a PMN ROS production at 1 nM (percent relative to 1000 nM fMLF) of 1.2%, a PMN ROS production at 3 nM (percent relative to 1000 nM fMLF) of 6.1%, a PMN ROS production at 12 nM (percent relative to 1000 nM fMLF) of 17.8% and a PMN ROS production at 30 nM (percent relative to 1000 nM fMLF) of 38.4%. In assay [2], the PMN ROS production at 100 nM (percent relative to 1000 nM fMLF) was 52.7%, the PMN ROS production at 300 nM (percent relative to 1000 nM fMLF) came out at 54.2% and the PMN ROS production at 1000 nM (percent relative to 1000 nM fMLF) was found to be 42.3%.
For “Emibetuzumab-G4(PAA)-fMLFK-HC-124C-378C (antibody)”, in assay [2], the PMN ROS production at 1 nM (percent relative to 1000 nM fMLF) is 0.6%, the PMN ROS production at 3 nM (percent relative to 1000 nM fMLF) came out at 0.8%, the PMN ROS production at 12 nM (percent relative to 1000 nM fMLF) is 0.9% and the PMN ROS production at 30 nM (percent relative to 1000 nM fMLF) turned out to be 1.8%. For the same substance, in assay [2], the PMN ROS production at 100 nM (percent relative to 1000 nM fMLF) was determined as 3.4%, the PMN ROS production at 300 nM (percent relative to 1000 nM fMLF) worked out at 9.1% and the PMN ROS production at 1000 nM (percent relative to 1000 nM fMLF) came to 25.3%. In assay [3], this substance registered a PMN ROS production at 1 nM (percent relative to 1000 nM fMLF) of 27.4%, a PMN ROS production at 2 nM (percent relative to 1000 nM fMLF) of 27.4%, a PMN ROS production at 3.9 nM (percent relative to 1000 nM fMLF) of 26.5% and a PMN ROS production at 7.8 nM (percent relative to 1000 nM fMLF) of 27.6%. Besides, in assay [3], the PMN ROS production at 15.6 nM (percent relative to 1000 nM fMLF) came to 28.3%, the PMN ROS production at 31.3 nM (percent relative to 1000 nM fMLF) was determined as 27.9%, the PMN ROS production at 62.5 nM (percent relative to 1000 nM fMLF) turned out to be 27.7% and the PMN ROS production at 125 nM (percent relative to 1000 nM fMLF) was determined as 24.7%. Moreover, in assay [3], the PMN ROS production at 250 nM (percent relative to 1000 nM fMLF) was found to be 29%, the PMN ROS production at 500 nM (percent relative to 1000 nM fMLF) is 53.6% and the PMN ROS production at 1000 nM (percent relative to 1000 nM fMLF) worked out at 62.2%.
In assay [2], “Emibetuzumab-G4(PAA)-fMLFK-HC-378C (antibody)” registered a PMN ROS production at 1 nM (percent relative to 1000 nM fMLF) of 0.9%, a PMN ROS production at 3 nM (percent relative to 1000 nM fMLF) of 1.8%, a PMN ROS production at 12 nM (percent relative to 1000 nM fMLF) of 0.9% and a PMN ROS production at 30 nM (percent relative to 1000 nM fMLF) of 1.2%. Also, in assay [2], the PMN ROS production at 100 nM (percent relative to 1000 nM fMLF) was determined as 1%, the PMN ROS production at 300 nM (percent relative to 1000 nM fMLF) worked out at 2.4% and the PMN ROS production at 1000 nM (percent relative to 1000 nM fMLF) turned out to be 2.8%. In assay [3], the PMN ROS production at 1 nM (percent relative to 1000 nM fMLF) was found to be 25.8%, the PMN ROS production at 2 nM (percent relative to 1000 nM fMLF) turned out to be 27.7%, the PMN ROS production at 3.9 nM (percent relative to 1000 nM fMLF) amounted to 28.2% and the PMN ROS production at 7.8 nM (percent relative to 1000 nM fMLF) is 27.3%. In assay [3], this substance registered a PMN ROS production at 15.6 nM (percent relative to 1000 nM fMLF) of 29.6%, a PMN ROS production at 31.3 nM (percent relative to 1000 nM fMLF) of 24.5%, a PMN ROS production at 62.5 nM (percent relative to 1000 nM fMLF) of 23.4% and a PMN ROS production at 125 nM (percent relative to 1000 nM fMLF) of 23.5%. For the same substance, in assay [3], the PMN ROS production at 250 nM (percent relative to 1000 nM fMLF) came to 23.9%, the PMN ROS production at 500 nM (percent relative to 1000 nM fMLF) was 38.3% and the PMN ROS production at 1000 nM (percent relative to 1000 nM fMLF) stood at 48.9%.
Regarding “Emibetuzumab-G4-fMLFK-HC-124C-157C-378C (antibody)”, in assay [2], the PMN ROS production at 1 nM (percent relative to 1000 nM fMLF) stood at 1.7%, the PMN ROS production at 3 nM (percent relative to 1000 nM fMLF) was 11.9%, the PMN ROS production at 12 nM (percent relative to 1000 nM fMLF) worked out at 26.9% and the PMN ROS production at 30 nM (percent relative to 1000 nM fMLF) was 50%. For the same substance, in assay [2], the PMN ROS production at 100 nM (percent relative to 1000 nM fMLF) stood at 63.6%, the PMN ROS production at 300 nM (percent relative to 1000 nM fMLF) was 58.7% and the PMN ROS production at 1000 nM (percent relative to 1000 nM fMLF) was 51.8%.
As for “H-Met-Leu-Phe-Lys (Mal-PEG12-OH (H-MLFK; not fully specified (residue 4)) [Peptide-'844]”, the “concentration at which PMN migration is maximally induced” value in assay [1] was 1 µM. Moreover, the “Relative Migration (PMN migration)” value in assay [1] (1 pM) was determined as 1.4%; in assay [1] (10 pM), 4.1%; in assay [1] (100 pM) it was 0.4%; in assay [1] (1 nM), 11.1%; in assay [1] (10 nM), 2.9%; in assay [1] (100 nM), 20.4%. The “Relative Migration (PMN migration)” value in assay [1] (1 uM) was 114.2%; in assay [1] (10 uM) it was 110.4%. In assay [1] (dose response differences), the “fold less potent at inducing PMN migration than Peptide-'183” value came out at 1000 fold. Further, the “ROS Production by PMNs” value in the assay with human primary PMNs (1 pM) is 7.4 percentage; with human primary PMNs (10 pM) it was 7.5 percentage; with human primary PMNs (100 pM), 7.5 percentage; in the assay on human primary PMNs (1 nM) it was 8.4 percentage; in the assay on human primary PMNs (10 nM) it was 7.8 percentage; in the assay on human primary PMNs (100 nM), 8.2 percentage. The “ROS Production by PMNs” value in the assay with human primary PMNs (1 μM) is reported as 8.7 percentage; in the assay with human primary PMNs (10 μM), 23.5 percentage.
